In US5200422A, “Benzimidazole derivatives, their preparation and use” (priority 1991, dated 1993):
Read-outs that look alike come from different tables or passages of the source.

How the values were obtained:
Type in all cases: cell-based
[1] = tested on: BKCa channel; assay: Single channel experiments, inside-out patches of cerebellar granule cell membrane
Method: (§1) All experiments were performed with patch-clamp technique (Hamill et al., Pflugers Arch. 391, 85-100 (1981). The ion composition of the internal solution was (in mM) 4 NaCl, 140 KCl, 1 CaCl2, 1 MgCl2, 2 EGTA, 10 HEPES and the external solution contained 140 NaCl, 4 KCl, 2 CaCl2, 1 MgCl2 and 10 HEPES.
In inside-out patches of cerebellar granule cell membrane single BKCa channels were activated by for example 5-trifluoromethyl-1-(5-chloro-2-hydroxyphenyl)-1,3-dihydro-2H-benzimidazole-2-one (3-10 μM), 5-trifluoromethyl-I-(2-hydroxyphenyl)-1,3-dihydro-2H-benzimidazole-2-one ([…]), 5-trifluoromethyl-1-(5-phenyl-2-hydroxyphenyl)-1,3-dihydro-2H-benzimidazole-2-one (3-30 μM). […] No effect was found on the delayed rectifier K^+ channel or on the Cl^- channels also present in the patches.
(§2) The BKCa channel in granule cells has been studied in symmetric 144 mM K^+, and under these conditions the average conductance is 154 pS (76 pS with 4 mM external K^+).

[2] = biological target: BKCa channel (Bos taurus, UniProt Q28204); assay: Patch-clamp, cultured bovine aortic smooth muscle cells
Sequence of BKCa channel (Bos taurus, UniProt Q28204) (Q28204 whole entry): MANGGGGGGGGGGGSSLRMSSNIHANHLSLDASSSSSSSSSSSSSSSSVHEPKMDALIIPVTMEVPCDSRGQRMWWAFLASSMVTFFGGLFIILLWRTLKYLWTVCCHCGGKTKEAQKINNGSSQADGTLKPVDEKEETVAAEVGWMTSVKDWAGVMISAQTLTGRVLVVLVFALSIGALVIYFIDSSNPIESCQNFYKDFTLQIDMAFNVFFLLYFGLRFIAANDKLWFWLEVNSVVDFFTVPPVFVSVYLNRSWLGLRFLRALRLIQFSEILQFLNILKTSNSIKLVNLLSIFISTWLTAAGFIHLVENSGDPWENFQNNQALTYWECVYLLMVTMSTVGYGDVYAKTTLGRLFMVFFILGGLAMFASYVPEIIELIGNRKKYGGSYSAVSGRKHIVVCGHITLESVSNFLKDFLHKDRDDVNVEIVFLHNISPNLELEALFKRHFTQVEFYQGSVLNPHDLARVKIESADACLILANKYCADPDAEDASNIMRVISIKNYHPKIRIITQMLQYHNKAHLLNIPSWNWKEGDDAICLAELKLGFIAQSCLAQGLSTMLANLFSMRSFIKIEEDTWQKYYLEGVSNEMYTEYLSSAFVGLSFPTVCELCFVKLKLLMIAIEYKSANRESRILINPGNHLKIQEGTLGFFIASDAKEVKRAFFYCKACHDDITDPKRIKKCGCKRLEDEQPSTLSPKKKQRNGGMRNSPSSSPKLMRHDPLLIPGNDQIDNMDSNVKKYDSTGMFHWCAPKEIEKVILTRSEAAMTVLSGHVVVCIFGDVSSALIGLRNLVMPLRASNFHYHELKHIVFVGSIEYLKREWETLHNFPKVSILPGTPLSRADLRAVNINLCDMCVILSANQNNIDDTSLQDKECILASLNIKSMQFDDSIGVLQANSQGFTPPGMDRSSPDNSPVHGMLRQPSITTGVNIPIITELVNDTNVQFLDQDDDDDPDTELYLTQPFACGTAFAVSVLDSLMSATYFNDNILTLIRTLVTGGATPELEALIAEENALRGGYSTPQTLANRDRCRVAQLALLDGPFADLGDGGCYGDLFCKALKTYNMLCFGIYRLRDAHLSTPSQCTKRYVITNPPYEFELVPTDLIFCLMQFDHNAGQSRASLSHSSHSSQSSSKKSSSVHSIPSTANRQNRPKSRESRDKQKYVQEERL
Sequence of BKCa channel (Bos taurus, UniProt Q28204) (Q28067 whole entry partner): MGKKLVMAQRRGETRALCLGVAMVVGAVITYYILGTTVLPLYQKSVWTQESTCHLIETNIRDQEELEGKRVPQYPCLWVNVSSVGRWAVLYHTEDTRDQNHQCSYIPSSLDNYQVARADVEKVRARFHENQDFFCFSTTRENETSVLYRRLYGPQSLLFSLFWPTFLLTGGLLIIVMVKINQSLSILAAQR
Method: as §1

[3] = tested on: BKCa channel; assay: Outside-out patches of granule cells, channel block; conditions: silent periods interdispersed with periods of low or normal activity
Method: as §1, §2

[4] = tested on: N1E-115 neuroblastoma cells; assay: Whole cell recordings: membrane potential in current clamp mode; conditions: 30 μM to the bath
Method: as §1
The membrane potential of N1E-115 neuroblastoma cells was determined in whole-cell recordings using current clamp mode (HEKA EPC-9 patch-clamp amplifier) Due to the high-resistance seal and the large size of these cells, the recorded membrane potential stayed stable for periods of 30-60 min, although at somewhat depolarized values (-15--60 Mv).
The equilibrium potentials for K^+, Cl^-, and Na^+ in these experiments were -90 mV, 0 mV, and +90 mV, respectively (cf. ion composition above) Thus, since potassium is the only ion having a reversal potential more negative than the resting membrane potential, the observed hyperpolarization induced by the test compound must be explained through an increased potassium conductance.

[5] = tested on: 160-180 pS BKCa channel; assay: Patch-clamp, cultured guinea pig tracheal smooth muscle cells
Method: as §1

Molecule: O=c1[nH]c2cc(C(F)(F)F)ccc2n1-c1cc(-c2ccccc2)ccc1O [1,3-dihydro-1-(5-phenyl-2-hydroxyphenyl)-5-trifluoromethyl-2H-benzimidazol-2-one]
- activation of single BKCa channels ([1]; 3-30 μM): activated
- activation of the BKCa channel ([2]; 3-30 μM): significantly activated

Molecule: Oc1ccccc1-n1c(=S)[nH]c2cc(C(F)(F)F)ccc21 [1,3-dihydro-1-(2-hydroxyphenyl)-5-trifluoromethyl-2H-benzimidazole-2-thion]
- activation of the BKCa channel ([2]; 3-30 μM): significantly activated

Molecule: O=c1[nH]c2cc(C(F)(F)F)ccc2n1-c1ccccc1O [5-trifluoromethyl-1,3-dihydro-1-(2-hydroxyphenyl)-2H-benzimidazol-2-one]
- activation of single BKCa channels [1]: activated

Molecule: Charybdotoxin
- block of the BKCa channel [3]: blocks the channel

Molecule: O=c1[nH]c2cc(C(F)(F)F)ccc2n1-c1cc2ccccc2cc1O [1,3-dihydro-1-(3-hydroxy-2-naphthyl)-5-trifluoromethyl-2H-benzimidazol-2-one]
- activation of the BKCa channel ([2]; 3-30 μM): significantly activated

Molecule: O=c1[nH]c2cc(Cl)c(Cl)cc2n1-c1cc(Cl)ccc1O [1,3-dihydro-1-(5-chloro-2-hydroxyphenyl)-5,6-dichloro-2H-benzimidazole-2-one]
- activation of the BKCa channel ([2]; 3-30 μM): significantly activated

Molecule: O=c1[nH]c2cc(C(F)(F)F)c([N+](=O)[O-])cc2n1-c1cc(Cl)cc([N+](=O)[O-])c1O [1,3-dihydro-1-(5-chloro-3-nitro-2-hydroxyphenyl)-5-trifluoromethyl-6-nitro-2H-benzimidazol-2-one]
- activation of the BKCa channel ([2]; 1-3 μM): significantly activated

Molecule: O=c1[nH]c2cc(C(F)(F)F)ccc2n1-c1cc(Cl)ccc1O [1-(5-chloro-2-hydroxyphenyl)-5-trifluoromethyl-1,3-dihydro-2H-benzimidazol-2-one]
- delay before hyperpolarization of the cells [4]: 1 to 3 min
- average hyperpolarization ([4]; current clamp, SD=-5 Mv, n=8): -14 Mv
- activation of single BKCa channels ([1]; 3-10 μM): activated
- activation of the BKCa channel ([2]; 3-30 μM): significantly activated
- activation of the BKCa channel [5]: potently activated
